According to ChEMBL document CHEMBL1909046, “DrugMatrix in vitro pharmacology data”:

Legend:
[1] = target: Sigma non-opioid intracellular receptor 1 (Homo sapiens, UniProt Q99720); test: DRUGMATRIX: Sigma1 radioligand binding (ligand: [3H] Haloperidol); assay type: cell membranes, Jurkat, Membrane; details: jurkat; Not Active = under 50% inhibition at 10 µM
[2] = target: T1, C-X-C chemokine receptor type 1 (Homo sapiens, UniProt P25024); also: in other assays of this panel Not Active means under 50% inhibition at 10 µM
T1 sequence (P25024 whole entry): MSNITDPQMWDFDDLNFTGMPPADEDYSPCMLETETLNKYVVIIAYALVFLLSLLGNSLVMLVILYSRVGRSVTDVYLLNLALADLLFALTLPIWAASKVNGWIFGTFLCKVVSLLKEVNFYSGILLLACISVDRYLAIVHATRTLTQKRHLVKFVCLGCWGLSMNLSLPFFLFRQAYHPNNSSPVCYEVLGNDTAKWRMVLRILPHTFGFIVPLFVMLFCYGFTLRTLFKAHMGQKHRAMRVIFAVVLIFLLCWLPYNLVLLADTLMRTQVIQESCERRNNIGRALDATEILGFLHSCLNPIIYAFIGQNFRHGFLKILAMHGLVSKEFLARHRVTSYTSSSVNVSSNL

[3] = target: T2, Muscarinic acetylcholine receptor M2 (Homo sapiens, UniProt P08172); assay type: cell membranes, CHO-K1, Membrane; details: cho-k1; also: in other assays of this panel Not Active means under 50% inhibition at 10 µM
T2 sequence (P08172 whole entry): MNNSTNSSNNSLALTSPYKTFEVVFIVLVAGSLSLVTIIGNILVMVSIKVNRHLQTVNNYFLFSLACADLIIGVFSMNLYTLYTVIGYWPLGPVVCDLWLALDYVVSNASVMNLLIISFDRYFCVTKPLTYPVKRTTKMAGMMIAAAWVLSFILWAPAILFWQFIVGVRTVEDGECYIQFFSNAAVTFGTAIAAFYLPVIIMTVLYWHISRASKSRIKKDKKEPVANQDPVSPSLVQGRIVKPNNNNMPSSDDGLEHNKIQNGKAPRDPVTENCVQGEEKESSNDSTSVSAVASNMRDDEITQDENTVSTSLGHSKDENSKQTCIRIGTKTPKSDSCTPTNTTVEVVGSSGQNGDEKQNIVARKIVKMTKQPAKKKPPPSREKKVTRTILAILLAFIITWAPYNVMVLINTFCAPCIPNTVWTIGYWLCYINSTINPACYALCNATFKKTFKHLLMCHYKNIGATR

[4] = target: cGMP-specific 3',5'-cyclic phosphodiesterase (Homo sapiens, UniProt O76074); test: DRUGMATRIX: Phosphodiesterase PDE5 enzyme inhibition (substrate: [3H]cGMP + cGMP); assay type: tissue-based; details: platelet; Not Active = under 50% inhibition at 10 µM
[5] = target: Epidermal growth factor receptor (Homo sapiens, UniProt P00533); test: DRUGMATRIX: Protein Tyrosine Kinase, EGF Receptor enzyme inhibition (substrate: Poly(Glu:Tyr)); assay type: cell-based, Insect cells; details: Not Active = under 50% inhibition at 10 µM
[6] = target: Adenosine receptor A2a (Homo sapiens, UniProt P29274); test: DRUGMATRIX: Adenosine A2A radioligand binding (ligand: […]); assay type: cell membranes, Membrane; details: hek293; Not Active = under 50% inhibition at 10 µM
[7] = target: Cytochrome P450 2D6 (Homo sapiens, UniProt P10635); details: bti-tn-5b1-4; also: in other assays of this panel Not Active means under 50% inhibition at 10 µM
Chain of Cytochrome P450 2D6 (P10635 whole entry): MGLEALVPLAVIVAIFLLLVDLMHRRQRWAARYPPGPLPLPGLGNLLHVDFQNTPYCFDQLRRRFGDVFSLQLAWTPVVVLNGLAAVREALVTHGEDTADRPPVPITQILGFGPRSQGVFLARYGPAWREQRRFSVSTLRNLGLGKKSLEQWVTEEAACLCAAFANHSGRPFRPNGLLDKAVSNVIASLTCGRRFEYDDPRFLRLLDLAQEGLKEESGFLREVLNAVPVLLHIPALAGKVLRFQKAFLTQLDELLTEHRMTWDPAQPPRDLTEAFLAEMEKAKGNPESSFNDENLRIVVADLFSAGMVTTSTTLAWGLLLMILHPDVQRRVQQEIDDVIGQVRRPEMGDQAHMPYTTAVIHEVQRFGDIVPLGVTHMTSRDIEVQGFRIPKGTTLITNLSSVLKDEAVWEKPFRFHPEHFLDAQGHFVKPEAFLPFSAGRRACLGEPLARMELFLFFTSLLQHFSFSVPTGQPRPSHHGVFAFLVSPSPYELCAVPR

Chain of Adenosine receptor A2a (P29274 whole entry): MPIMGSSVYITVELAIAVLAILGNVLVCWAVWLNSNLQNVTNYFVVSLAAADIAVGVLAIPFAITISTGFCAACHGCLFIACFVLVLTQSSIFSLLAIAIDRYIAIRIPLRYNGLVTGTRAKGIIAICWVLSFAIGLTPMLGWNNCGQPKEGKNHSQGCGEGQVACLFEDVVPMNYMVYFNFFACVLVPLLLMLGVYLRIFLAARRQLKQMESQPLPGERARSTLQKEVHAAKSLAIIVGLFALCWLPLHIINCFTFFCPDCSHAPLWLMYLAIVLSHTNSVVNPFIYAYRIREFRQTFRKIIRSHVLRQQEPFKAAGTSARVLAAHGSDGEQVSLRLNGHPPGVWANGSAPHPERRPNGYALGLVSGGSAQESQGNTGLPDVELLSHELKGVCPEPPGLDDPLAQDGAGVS
Chain of Sigma non-opioid intracellular receptor 1 (Q99720 whole entry): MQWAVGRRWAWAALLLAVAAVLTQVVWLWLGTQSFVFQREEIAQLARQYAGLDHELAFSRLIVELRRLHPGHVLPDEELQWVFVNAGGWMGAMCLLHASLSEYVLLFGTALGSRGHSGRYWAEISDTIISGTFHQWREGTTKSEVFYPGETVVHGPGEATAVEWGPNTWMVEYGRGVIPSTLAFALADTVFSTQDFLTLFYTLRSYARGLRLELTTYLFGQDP

Molecule | IC50 [1] | IC50 [2] | IC50 [3] | IC50 [4] | IC50 ([5]; insect cells) | IC50 [6] | IC50 [7] | Ki [7] | IC50 ([5]; read-out: IC50) | Ki [1] | Ki [2] | Ki [3] | Ki [4] | IC50 ([5]; insect cells, read-out: IC50) | Ki [6] | Ki ([5]; insect cells)
CC(C)[C@H]1C(=O)N2CCC[C@H]2[C@]2(O)O[C@](NC(=O)[C@@H]3C=C4c5cccc6[nH]cc(c56)C[C@H]4N(C)C3)(C(C)C)C(=O)N12 [ERGOCORNINE] | Not Active | Not Active | Not Active | Not Active | Not Active | Not Active | Not Active | Not Active | – | – | – | – | – | – | – | –
OC(Cn1cncn1)(Cn1cncn1)c1ccc(F)cc1F [FLUCONAZOLE] | Not Active | Not Active | Not Active | Not Active | Not Active | Not Active | Not Active | Not Active | – | – | – | – | – | – | – | –
CC(C)C(=O)Nc1ccc([N+](=O)[O-])c(C(F)(F)F)c1 [FLUTAMIDE] | Not Active | Not Active | Not Active | Not Active | Not Active | Not Active | Not Active | Not Active | – | – | – | – | – | – | – | –
CC1(C)O[C@@H]2C[C@H]3[C@@H]4CCC5=CC(=O)CC[C@]5(C)[C@@]4(F)[C@@H](O)C[C@]3(C)[C@]2(C(=O)CCl)O1 [HALCINONIDE] | Not Active | Not Active | Not Active | Not Active | Not Active | Not Active | Not Active | Not Active | – | – | – | – | – | – | – | –
O=c1[nH]c(=O)n([C@H]2C[C@H](O)[C@@H](CO)O2)cc1I [IDOXURIDINE] | Not Active | Not Active | Not Active | Not Active | Not Active | Not Active | Not Active | Not Active | – | – | – | – | – | – | – | –
CC1Cc2ccccc2N1NC(=O)c1ccc(Cl)c(S(N)(=O)=O)c1 (stereo not drawn) [INDAPAMIDE] | Not Active | Not Active | Not Active | Not Active | Not Active | Not Active | Not Active | Not Active | – | – | – | – | – | – | – | –
Nc1nc(N)nc(-c2cc(Cl)ccc2Cl)n1.O=C(O)/C=C\C(=O)O [IRSOGLADINE MALEATE] | Not Active | Not Active | Not Active | Not Active | Not Active | Not Active | Not Active | Not Active | – | – | – | – | – | – | – | –
CCC(C)n1ncn(-c2ccc(N3CCN(c4ccc(OCC5COC(Cn6cncn6)(c6ccc(Cl)cc6Cl)O5)cc4)CC3)cc2)c1=O (stereo not drawn) [ITRACONAZOLE] | Not Active | Not Active | Not Active | Not Active | Not Active | Not Active | Not Active | Not Active | – | – | – | – | – | – | – | –
CCCCc1nc(Cl)c(CO)n1Cc1ccc(-c2ccccc2-c2nnn[nH]2)cc1 [LOSARTAN] | Not Active | Not Active | Not Active | Not Active | Not Active | Not Active | Not Active | Not Active | – | – | – | – | – | – | – | –
Sc1ncnc2nc[nH]c12 [MERCAPTOPURINE ANHYDROUS] | Not Active | Not Active | Not Active | Not Active | Not Active | Not Active | Not Active | Not Active | – | – | – | – | – | – | – | –
C[C@](N)(Cc1ccc(O)c(O)c1)C(=O)O [METHYLDOPA] | Not Active | Not Active | Not Active | Not Active | – | Not Active | Not Active | Not Active | 5230 nM | – | – | – | – | – | – | –
C[C@]12CCC(=O)C=C1CC[C@@H]1[C@@H]2CC[C@@]2(C)[C@H]1CC[C@]2(C)O [METHYLTESTOSTERONE] | Not Active | Not Active | Not Active | Not Active | Not Active | Not Active | Not Active | Not Active | – | – | – | – | – | – | – | –
Cc1ccccc1N1C(=O)c2cc(S(N)(=O)=O)c(Cl)cc2NC1C (stereo not drawn) [METOLAZONE] | Not Active | Not Active | Not Active | Not Active | Not Active | Not Active | Not Active | Not Active | – | – | – | – | – | – | – | –
COCCc1ccc(OCC(O)CNC(C)C)cc1 (stereo not drawn) [METOPROLOL] | Not Active | Not Active | Not Active | Not Active | Not Active | Not Active | Not Active | Not Active | – | – | – | – | – | – | – | –
CCn1cc(C(=O)O)c(=O)c2cc(F)c(N3CCNCC3)cc21 [NORFLOXACIN] | Not Active | Not Active | Not Active | Not Active | Not Active | Not Active | Not Active | Not Active | – | – | – | – | – | – | – | –
NC1=NC(=O)C(c2ccccc2)O1 (stereo not drawn) [PEMOLINE] | Not Active | Not Active | Not Active | Not Active | Not Active | Not Active | Not Active | Not Active | – | – | – | – | – | – | – | –
Nc1nc2c(ncn2CCC(CO)CO)c(=O)[nH]1 [PENCICLOVIR] | Not Active | Not Active | Not Active | Not Active | Not Active | Not Active | Not Active | Not Active | – | – | – | – | – | – | – | –
C=C(C)C1(O)OC(=O)C=C1OC (stereo not drawn) [PENICILLIC ACID] | Not Active | Not Active | Not Active | Not Active | Not Active | Not Active | Not Active | Not Active | – | – | – | – | – | – | – | –
CCOc1ccc(NC(C)=O)cc1 [PHENACETIN] | Not Active | Not Active | Not Active | Not Active | Not Active | Not Active | Not Active | Not Active | – | – | – | – | – | – | – | –
CNNCc1ccc(C(=O)NC(C)C)cc1 [PROCARBAZINE] | Not Active | Not Active | Not Active | Not Active | Not Active | Not Active | Not Active | Not Active | – | – | – | – | – | – | – | –
CC(O)CO (stereo not drawn) [PROPYLENE GLYCOL] | Not Active | Not Active | Not Active | Not Active | Not Active | Not Active | Not Active | Not Active | – | – | – | – | – | – | – | –
CADMIUM ACETATE | Not Active | Not Active | Not Active | Not Active | – | Not Active | Not Active | Not Active | – | Not Active | Not Active | Not Active | Not Active | 244 nM | Not Active | –
LEAD (II) ACETATE | Not Active | Not Active | Not Active | Not Active | Not Active | Not Active | Not Active | Not Active | – | Not Active | Not Active | Not Active | Not Active | – | Not Active | Not Active
LIPOPOLYSACCHARIDE E. COLI O55:B5 | Not Active | Not Active | Not Active | Not Active | – | Not Active | Not Active | Not Active | – | Not Active | Not Active | Not Active | Not Active | 188 nM | Not Active | –
